Series [1] has as its system human neuroblastoma cell lines (SH-SY5Y, SKNF-1, NGP, IMR-32 and SK-N-BE(2) cells). The series is described as follows: Cell morphology by phase contrast microscopy. Type of series: cell-based. An excerpt: (§1) Human neuroblastoma cell lines (SH-SY5Y, IMR-32, SK-N-BE(2) and SKNF-1 cells) were obtained from The American Type Culture Collection (ATCC; Manassas, Va.), and NGP cells were kind gift from Garrett M. Brodeur (The Children's Hospital of Philadelphia, Philadelphia, Pa.). All cell lines were maintained in complete Dulbecco's Modified Eagle's Medium (DMEM) supplemented with 10% fetal bovine serum (FBS; Atlanta Biologicals, Lawrenceville, Ga.) and 1× antibiotic-antimycotic solution (containing 100 U/ml penicillin, 100 μg/ml streptomycin and 0.25 μg/ml amphotericin B), and grown at 37° C. in a humidified incubator with 5% CO2. Stock solution of SsnB was prepared in dimethyl sulfoxide (DMSO). Cells treated with different concentrations of SsnB in DMEM with 10% FBS were grown for subsequent days. Cells treated with equal volume of DMSO were used as control.
To test the inhibitory effects of SsnB on neuroblastoma cell survival, human neuroblastoma cell lines of different genetic background (SH-SY5Y, SKNF-1, NGP, IMR-32 and SK-N-BE(2) cells) were treated with 1 μM, 5 μM, 10 μM or 20 μM concentration of SsnB under in vitro conditions. Following SsnB treatments, neuroblastoma cell were grown and were photographed under light microscope to evaluate the cell morphology.

Series [2] deals with normal human cells (THP-1 cells, PMA-differentiated THP-1 macrophages, human umbilical vein endothelial cells, human aortic smooth muscle cells). The series can be described thus: Cytotoxic response in normal human cells. Type of series: cell-based. The conditions noted are these: 1-20 μM and up to about 100 μM.
In series [3] the test system is human neuroblastoma cell lines (SH-SY5Y, SKNF-1, NGP, IMR-32 and SK-N-BE(2) cells). The series is described as follows: MTT cell viability assay. Type of series: cell-based.
From the text: as §1
The viability of SsnB-treated cells was determined by MTT assay following manufacturer's instructions (Roche diagnostics corporation, Indianapolis, Ind.). Briefly, cells (1×10^4 cells/well) grown in 96-well cell culture plate were incubated with or without SsnB in 100 μl of complete culture medium with 10% FBS. After treatments, cells were incubated with 10 μl of MTT reagent for 4 h and then incubated overnight in solubilization buffer (100 μl) at 37° C. Absorbance of the formazan product was read at 575 nm in spectramax spectrophotometer (Molecular Devices, Sunnyvale, Calif.). A reference wavelength of 690 nm was used to detect background. The measured absorption directly correlated with the number of viable cells in culture. The experiments were performed in triplicate and repeated at least three times.
MTT assay was carried out to examine the effects of SsnB on viability of all the above listed neuroblastoma cells. After 2 days (SH-SY5Y and IMR-32), 3 days (NGP cells) or 4 days (SKNF-1 and SK-N-BE(2) cells) treatment with SsnB (1, 5, 10 and 20 μM), MTT cell viability assays were performed.

Series [4] deals with SK-N-BE(2) and SH-SY5Y cells. The series is described as follows: Two layer soft agarose colony formation assay. The following applies: SsnB 10 μM, 45 days. In kind it is cell-based, human. The protocol: A two layer soft agarose assay system was used in these studies. Approximately 1×10^4 cells were suspended in 0.35% agarose in DMEM with 10% FBS, and were gently laid on the bottom agarose layer containing 0.8% agarose with DMEM+10% FBS in 35 mm^2 cell culture dishes. Once solidified, the dishes were incubated at 37° C. in a humidified chamber with 5% CO2. Next day, 500 μl of complete cell culture medium with respective concentrations of SsnB was added, and cells were allowed to grow for 45 days in an incubator chamber. Fresh medium with respective concentrations of SsnB was added to the dishes in every 5 days. Cells treated with equal volume of DMSO were used as control. At the end of experiments, cells were stained with 0.1% crystal violet and cell colonies (more than 15 cells per colony) were counted under the light microscope.
The anti-proliferative activity of SsnB to affects the tumor progression property of neuroblastoma cells was tested by performing two layer agarose gel colony formation assays. Agarose gel colony formation assay is an anchorage-independent in vitro cell transformation assay, and mimics the process of in vivo carcinogenesis. Neuroblastoma cells (N-myc amplified cell, SK-N-BE(2), and N-myc nonamplified cell, SH-SY5Y) were grown in agarose in presence or absence of SsnB (1 μM and 10 μM) and after 45 days the number of colonies was counted.

The test system of another series is neuroblastoma cells. The series is described as follows: TUNEL assay for DNA fragmentation in cells. Type of series: cell-based, human. An excerpt:
Increased levels of ROS are known to induce oxidative stress which in turn cleaves DNA that leads to cell death. SsnB-induced DNA fragmentation in neuroblastoma cells was examined by terminal deoxynucleotidyl transferase dUTP nick end labeling (TUNEL) assay. In this assay, nicked DNA is identified by the addition of fluorophore-labeled dUTPs by enzyme terminal deoxynucleotidyl transferase (TdT) to the terminal ends of damaged DNA in apoptotic cells. The TUNEL-positive cells were quantitated by ImageJ programme and plotted. […] However, such TUNEL-positive cells were not detected in DMSO- or SsnB (1 μM)-treated cells.

[5] abbreviates: Homo sapiens, MTT, 2 days (SH-SY5Y, IMR-32), 3 days (NGP), 4 days (SKNF-1, SK-N-BE(2)), range over the cell lines.

Structures are written as SMILES. pIC50: −log10 of the molar value.

On to `O=c1occ2c3c(ccc(O)c13)Oc1ccc(O)cc1-2` [SsnB, 8,5′-dihydroxy-4-phenyl-5,2′-oxidoisocoumarin], for which the “cell morphology (rounded cells, indication of cell death) vs DMSO” value in series [1] (SsnB 10 μM and above, 2, 3 or 4 days depending on line) is recorded as “changed the morphology”. For the same molecule, in series [1] (SsnB 1 or 5 μM, any cell line tested), the morphological changes result is recorded as “not significant”. In addition, the cytotoxic response entry in series [2] is recorded as “No cytotoxic response”. Also, the IC20 in series [3] (setting [5]) lay in the range of 6 to 8 µM. The same molecule gave a pIC50 in series [3] (setting [5]) of 4.92 to 5.00. Further, the “sensitivity towards SsnB treatment” value is listed as “moderately sensitive” in series [3] (NGP cell); “most sensitive” in series [3] (SH-SY5Y and IMR-32 cells); “least sensitive” in series [3] (SKNF-1 and SK-N-BE(2) cell lines). The “cell survival vs DMSO” value in series [3] (SsnB 1 μM or 5 μM, p>0.05) is on record as “No significant difference in cell survival”. Moreover, in series [3] (SsnB 10 μM alone, MTT, range over cell lines (FIG. 5A)), the neuroblastoma cell death is listed as 40-60%. The “cell viability vs DMSO” value in series [3] (SsnB at and above 10 μM, p<0.05) is reported as “significantly reduced the viability”. The size of colonies entry in series [4] (vs control and SsnB 1 μM) is reported as “significantly smaller”. For the same molecule, in series [4] (p<0.05 vs control), the “colony formation capability (number of colonies)” value is “significantly inhibited the colony formation capability”. Moreover, the “number of TUNEL-positive cells vs control” value was “almost similar to DMSO-treated samples” in the series with neuroblastoma cells (SsnB 1 μM, nonsignificant) and “significantly higher” with neuroblastoma cells (SsnB 10 μM, all neuroblastoma cells).

(Values after patent publication US9446019B2, “Sparstolonin B based pharmaceutical agent for neuroblastoma treatment” (University of South Carolina, priority 2013, dated 2016).)
